Read-outs that look alike come from different tables or passages of the source.
Key:
Mer = biological target: T1, Mer (Homo sapiens, UniProt Q12866); assay: LanthaScreen Eu kinase binding assay for Mer; conditions: read-out: Mer kinase binding activity (Kd)
T1 construct: purchased Life Technologies
T1 sequence (Q12866 21-999): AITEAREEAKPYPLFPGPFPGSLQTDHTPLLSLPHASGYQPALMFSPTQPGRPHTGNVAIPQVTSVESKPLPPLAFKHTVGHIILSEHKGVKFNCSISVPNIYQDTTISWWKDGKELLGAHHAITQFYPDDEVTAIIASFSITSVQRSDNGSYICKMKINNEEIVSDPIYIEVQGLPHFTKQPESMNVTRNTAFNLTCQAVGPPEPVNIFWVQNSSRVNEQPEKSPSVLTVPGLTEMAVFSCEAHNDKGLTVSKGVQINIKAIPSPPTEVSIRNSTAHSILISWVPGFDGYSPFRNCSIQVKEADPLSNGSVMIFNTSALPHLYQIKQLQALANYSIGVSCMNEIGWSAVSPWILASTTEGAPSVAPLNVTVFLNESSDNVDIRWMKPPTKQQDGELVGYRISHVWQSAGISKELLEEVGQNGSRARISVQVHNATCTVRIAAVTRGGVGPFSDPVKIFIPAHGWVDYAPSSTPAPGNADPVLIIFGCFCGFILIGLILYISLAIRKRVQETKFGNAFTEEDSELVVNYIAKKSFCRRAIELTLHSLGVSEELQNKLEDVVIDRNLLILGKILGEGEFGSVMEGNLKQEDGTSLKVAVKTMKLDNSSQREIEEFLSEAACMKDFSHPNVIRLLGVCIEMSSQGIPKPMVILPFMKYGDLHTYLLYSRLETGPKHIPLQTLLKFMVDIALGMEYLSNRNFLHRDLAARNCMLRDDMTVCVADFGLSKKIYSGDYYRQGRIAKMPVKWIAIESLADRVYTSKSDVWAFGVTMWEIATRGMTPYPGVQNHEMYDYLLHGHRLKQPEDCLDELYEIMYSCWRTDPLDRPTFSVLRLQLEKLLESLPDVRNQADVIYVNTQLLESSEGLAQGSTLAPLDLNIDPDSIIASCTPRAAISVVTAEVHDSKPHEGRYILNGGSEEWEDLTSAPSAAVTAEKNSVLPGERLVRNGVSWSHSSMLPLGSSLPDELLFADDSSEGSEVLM
In short: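 Kd values come from control-normalized FRET loss, referenced to DMSO vehicle wells, after 1 h at room temperature. Each compound was serially diluted over eight steps in DMSO and competed against Tracer 236 (Alexa Fluor 647) for the kinase, which was tagged by a Eu anti-GST antibody.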

CSF1R = CSF1R (Homo sapiens, UniProt P07333); assay: KINOMEscan competition binding assay for CSF1R; design: DNA tag for qPCR (not a peptide); host or cells: E. coli/T7 phage or HEK-293; conditions: for Kd: read-out: CSF1R kinase binding activity (Kd)
Chain of CSF1R (P07333 20-972): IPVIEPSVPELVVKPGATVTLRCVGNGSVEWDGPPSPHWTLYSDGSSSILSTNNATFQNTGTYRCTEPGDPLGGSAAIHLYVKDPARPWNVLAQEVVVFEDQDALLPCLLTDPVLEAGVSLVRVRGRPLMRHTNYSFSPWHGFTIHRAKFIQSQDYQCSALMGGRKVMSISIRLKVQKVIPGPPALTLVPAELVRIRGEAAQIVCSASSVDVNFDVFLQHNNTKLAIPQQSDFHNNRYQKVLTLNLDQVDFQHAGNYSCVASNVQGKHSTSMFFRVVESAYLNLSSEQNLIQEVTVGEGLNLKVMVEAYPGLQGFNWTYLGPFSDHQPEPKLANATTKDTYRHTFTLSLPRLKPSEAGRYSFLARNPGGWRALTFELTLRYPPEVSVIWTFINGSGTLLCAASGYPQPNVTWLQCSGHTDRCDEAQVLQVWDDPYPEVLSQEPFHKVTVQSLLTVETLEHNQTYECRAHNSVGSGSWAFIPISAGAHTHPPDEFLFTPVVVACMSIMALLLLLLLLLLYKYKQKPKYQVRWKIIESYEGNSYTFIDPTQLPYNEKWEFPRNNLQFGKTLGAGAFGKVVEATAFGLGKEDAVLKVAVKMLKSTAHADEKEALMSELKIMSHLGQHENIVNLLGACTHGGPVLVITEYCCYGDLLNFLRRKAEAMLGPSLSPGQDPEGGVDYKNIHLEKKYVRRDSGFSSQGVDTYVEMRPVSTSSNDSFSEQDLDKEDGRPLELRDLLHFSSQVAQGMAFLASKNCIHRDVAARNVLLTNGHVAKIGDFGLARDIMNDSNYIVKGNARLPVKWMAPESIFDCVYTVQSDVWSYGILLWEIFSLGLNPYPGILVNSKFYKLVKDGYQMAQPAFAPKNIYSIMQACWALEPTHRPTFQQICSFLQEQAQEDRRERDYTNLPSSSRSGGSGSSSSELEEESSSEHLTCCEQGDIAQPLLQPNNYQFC
In short: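 Values are either % inhibition at 0.1 uM, relative to DMSO (100% Ctrl) and a control compound (0% Ctrl), or Kd from an 11-point 3-fold series fitted with Hill slope −1. DNA-tagged kinase binds immobilized ligand beads with compound for 1 h at room temperature, and eluted kinase is measured by qPCR.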

[1] = read-out: CSF1R kinase binding activity, Percent (%) inhibition
[2] = read-out: CSF1R kinase binding activity, Range

Row | SMILES | Kd (Mer) | inhibition at 0.1 µM (CSF1R; [1]) | inhibition at 0.1 µM (CSF1R; [2]) | Kd (CSF1R)
1 | COc1cc2nccc(Oc3ccc(NC(=O)c4nn(CC(C)O)cc4OCC4CN(C)C4)nc3)c2cc1OC (centres unmarked) [Compound 174] | ≥ 500 nM | 25% | < 50% | –
2 | COc1cc2nccc(Oc3ccc(NC(=O)c4nn(CC5CCOC5)cc4OCC(F)(F)F)nc3)c2cc1OC (centres unmarked) [Compound 44] | < 100 nM | 82% | ≥ 80% | –
3 | COc1cc2nccc(Oc3ccc(NC(=O)c4nn(C5CCOC5)cc4OCC(F)(F)F)cc3F)c2cc1OC (centres unmarked) [Compound 55] | < 100 nM | 60% | 50 to 80% | –
4 | COc1cc2nccc(Oc3ccc(NC(=O)c4nn(C5CCCC5)cc4OCC(F)(F)F)cc3C)c2cc1OC [Compound 57] | < 100 nM | 97% | ≥ 80% | –
5 | COc1cc2nccc(Oc3ccc(NC(=O)c4nn(C)cc4OCC(F)(F)F)cc3C)c2cc1OC [Compound 37] | < 100 nM | 97% | ≥ 80% | –
6 | COc1cc2nccc(Oc3ccc(NC(=O)c4nn(CC5CCCC5)cc4OCC(F)(F)F)nc3)c2cc1OC [Compound 71] | < 100 nM | 88% | ≥ 80% | –
7 | CCCn1cc(OCC2CCC2)c(C(=O)Nc2ccc(Oc3ccnc4cc(OC)c(OC(F)(F)F)cc34)cn2)n1 [Compound 167] | < 100 nM | 0% | < 50% | –
8 | CCCn1cc(OCCC(O)CO)c(C(=O)Nc2ccc(Oc3ccnc4cc(OC)c(OC)cc34)cn2)n1 (centres unmarked) [Compound 15] | < 100 nM | 87% | ≥ 80% | –
9 | CCn1nc(C(=O)Nc2ccc(Oc3ccnc4cc(OC)c(OC)cc34)cn2)c(OCC(F)(F)F)c1C [Compound 1] | < 100 nM | 96% | ≥ 80% | < 100 nM
10 | COc1cc2nccc(Oc3ccc(NC(=O)c4nn(CC(C)O)cc4OCC(F)F)nc3)c2cc1OC (centres unmarked) [Compound 175] | < 100 nM | 97% | ≥ 80% | –
11 | COc1cc2nccc(Oc3ccc(NC(=O)c4nn(C5CCOC5)cc4OCC(F)(F)F)cc3)c2cc1OC (centres unmarked) [Compound 62] | < 100 nM | 54% | 50 to 80% | –
12 | COc1cc2nccc(Oc3ccc(NC(=O)c4nn(C5CC5)cc4OCCC(F)(F)F)nc3)c2cc1OC [Compound 170] | < 100 nM | 90% | ≥ 80% | –
13 | CCCn1cc(OC(C)C)c(C(=O)Nc2ccc(Oc3ccnc4cc(OC)c(OC(F)(F)F)cc34)c(F)c2)n1 [Compound 35] | ≥ 500 nM | 6% | < 50% | –
14 | COc1cc2nccc(Oc3ccc(NC(=O)c4nn(CCC(F)(F)F)cc4OCC4CCC4)nc3)c2cc1OC [Compound 166] | < 100 nM | 84% | ≥ 80% | –
15 | COc1cc2nccc(Oc3ccc(NC(=O)c4nn(CC(C)C)cc4OCC(F)(F)F)cc3F)c2cc1OC [Compound 53] | < 100 nM | 71% | 50 to 80% | –
16 | COc1cc2nccc(Oc3ccc(NC(=O)c4nn(C5CCCCC5)cc4OCC(F)(F)F)nc3)c2cc1OC [Compound 69] | < 100 nM | 89% | ≥ 80% | –
17 | COc1cc2nccc(Oc3ccc(NC(=O)c4nn(CC(C)C)cc4OCC(F)(F)F)cc3C)c2cc1OC [Compound 58] | < 100 nM | 76% | 50 to 80% | –
18 | COc1cc2nccc(Oc3ccc(NC(=O)c4nc(CCC(F)(F)F)oc4CCC4CCC4)nc3)c2cc1OC [Compound 176] | 100 to 500 nM | 40% | < 50% | –
19 | COc1cc2nccc(Oc3ccc(NC(=O)c4nn(C5CC5)c(C(C)=O)c4OCC(F)(F)F)nc3)c2cc1OC [Compound 3] | < 100 nM | 71% | 50 to 80% | 100 to 500 nM

Next, values leading:

Row | Kd (Mer) | inhibition at 0.1 µM (CSF1R; [1]) | inhibition at 0.1 µM (CSF1R; [2]) | Kd (CSF1R) | SMILES
20 | < 100 nM | 93% | ≥ 80% | – | COc1cc2nccc(Oc3ccc(NC(=O)c4nn(CC5CCN(C)C5)cc4OCC(F)(F)F)nc3)c2cc1OC (centres unmarked) [Compound 169]
21 | < 100 nM | 97% | ≥ 80% | – | COc1cc2nccc(Oc3ccc(NC(=O)c4nn(CC5CC5)cc4OCC(F)(F)F)nc3)c2cc1OC [Compound 41]
22 | < 100 nM | 66% | 50 to 80% | – | COCCn1cc(OCC(F)(F)F)c(C(=O)Nc2ccc(Oc3ccnc4cc(OC)c(OC)cc34)cc2F)n1 [Compound 49]
23 | < 100 nM | 87% | ≥ 80% | – | CCCn1cc(OCC(F)(F)F)c(C(=O)Nc2ccc(Oc3ccnc4cc(OC)c(OC)cc34)c(F)c2)n1 [Compound 25]
24 | < 100 nM | 96% | ≥ 80% | – | COc1cc2nccc(Oc3ccc(NC(=O)c4nn(CCOC5CCC5)cc4OCC(F)(F)F)nc3)c2cc1OC [Compound 65]
25 | < 100 nM | 58% | 50 to 80% | – | CCCn1cc(OCC(F)(F)F)c(C(=O)Nc2ccc(Oc3ccnc4cc(OC)c(OC)cc34)cc2C)n1 [Compound 27]
26 | < 100 nM | 76% | 50 to 80% | – | COCCn1cc(OCC(F)(F)F)c(C(=O)Nc2ccc(Oc3ccnc4cc(OC)c(OC)cc34)cc2)n1 [Compound 61]
27 | 100 to 500 nM | 57% | 50 to 80% | – | COc1cc2nccc(Oc3ccc(NC(=O)c4nn(CCN)cc4OCC(F)(F)F)c(F)c3)c2cc1OC [Compound 75]
28 | < 100 nM | 97% | ≥ 80% | – | COc1cc2nccc(Oc3ccc(NC(=O)c4nn(CC(C)O)cc4OCC(F)(F)F)nc3)c2cc1OC (centres unmarked) [Compound 17]
29 | < 100 nM | 98% | ≥ 80% | – | COc1cc2nccc(Oc3ccc(NC(=O)c4nn(CCCN)cc4OCC(F)(F)F)nc3)c2cc1OC [Compound 68]
30 | < 100 nM | 99% | ≥ 80% | – | COc1cc2nccc(Oc3ccc(NC(=O)c4nn(C[C@H](C)O)cc4OCC(F)(F)F)nc3)c2cc1OC [Compound 30]
31 | < 100 nM | 97% | ≥ 80% | – | COc1cc2nccc(Oc3ccc(NC(=O)c4nn(CCC#N)cc4OCC(F)(F)F)nc3)c2cc1OC [Compound 39]
32 | < 100 nM | 94% | ≥ 80% | – | CCCn1cc(NCC(F)(F)F)c(C(=O)Nc2ccc(Oc3ccnc4cc(OC)c(OC)cc34)cn2)n1 [Compound 23]
33 | < 100 nM | 95% | ≥ 80% | – | CCCn1cc(OCC(F)(F)F)c(C(=O)Nc2ccc(Oc3ccnc4cc(OC)c(OC)cc34)nn2)n1 [Compound 32]
34 | < 100 nM | 90% | ≥ 80% | – | CCCn1cc(OCC(F)(F)F)c(C(=O)Nc2ccc(Oc3ccnc4cc(OC)c(OC)cc34)cc2F)n1 [Compound 28]
35 | < 100 nM | 96% | ≥ 80% | – | COc1cc2nccc(Oc3ccc(NC(=O)c4nn(CC5CCNC5)cc4OCC(F)(F)F)nc3)c2cc1OC (centres unmarked) [Compound 72]
36 | < 100 nM | 96% | ≥ 80% | – | COc1cc2nccc(Oc3ccc(NC(=O)c4nn(CCO)cc4OCC(F)(F)F)nc3)c2cc1OC [Compound 67]
37 | < 100 nM | 96% | ≥ 80% | – | COc1cc2nccc(Oc3ccc(NC(=O)c4nn(CCO)cc4OCC(F)(F)F)c(F)c3)c2cc1OC [Compound 46]
38 | < 100 nM | 94% | ≥ 80% | – | CCCn1cc(OCC(F)(F)F)c(C(=O)Nc2ccc(Oc3ccnc4cc(OC)c(OC)cc34)c(C)c2)n1 [Compound 26]
39 | < 100 nM | 95% | ≥ 80% | – | CCCCn1cc(OCC(F)(F)F)c(C(=O)Nc2ccc(Oc3ccnc4cc(OC)c(OC)cc34)cn2)n1 [Compound 36]
